Where two headings read alike, the source gives them in different places.
Tests used:
[1] = biological target: T1, Hormone-sensitive lipase (HSL) (Homo sapiens, UniProt Q05469); assay: biochemical; format: biochemical; settings: for activity at 10 µM: read-out: Test 3180.2 HSL % ACTIVITY All
T1 sequence (Q05469 1-1076): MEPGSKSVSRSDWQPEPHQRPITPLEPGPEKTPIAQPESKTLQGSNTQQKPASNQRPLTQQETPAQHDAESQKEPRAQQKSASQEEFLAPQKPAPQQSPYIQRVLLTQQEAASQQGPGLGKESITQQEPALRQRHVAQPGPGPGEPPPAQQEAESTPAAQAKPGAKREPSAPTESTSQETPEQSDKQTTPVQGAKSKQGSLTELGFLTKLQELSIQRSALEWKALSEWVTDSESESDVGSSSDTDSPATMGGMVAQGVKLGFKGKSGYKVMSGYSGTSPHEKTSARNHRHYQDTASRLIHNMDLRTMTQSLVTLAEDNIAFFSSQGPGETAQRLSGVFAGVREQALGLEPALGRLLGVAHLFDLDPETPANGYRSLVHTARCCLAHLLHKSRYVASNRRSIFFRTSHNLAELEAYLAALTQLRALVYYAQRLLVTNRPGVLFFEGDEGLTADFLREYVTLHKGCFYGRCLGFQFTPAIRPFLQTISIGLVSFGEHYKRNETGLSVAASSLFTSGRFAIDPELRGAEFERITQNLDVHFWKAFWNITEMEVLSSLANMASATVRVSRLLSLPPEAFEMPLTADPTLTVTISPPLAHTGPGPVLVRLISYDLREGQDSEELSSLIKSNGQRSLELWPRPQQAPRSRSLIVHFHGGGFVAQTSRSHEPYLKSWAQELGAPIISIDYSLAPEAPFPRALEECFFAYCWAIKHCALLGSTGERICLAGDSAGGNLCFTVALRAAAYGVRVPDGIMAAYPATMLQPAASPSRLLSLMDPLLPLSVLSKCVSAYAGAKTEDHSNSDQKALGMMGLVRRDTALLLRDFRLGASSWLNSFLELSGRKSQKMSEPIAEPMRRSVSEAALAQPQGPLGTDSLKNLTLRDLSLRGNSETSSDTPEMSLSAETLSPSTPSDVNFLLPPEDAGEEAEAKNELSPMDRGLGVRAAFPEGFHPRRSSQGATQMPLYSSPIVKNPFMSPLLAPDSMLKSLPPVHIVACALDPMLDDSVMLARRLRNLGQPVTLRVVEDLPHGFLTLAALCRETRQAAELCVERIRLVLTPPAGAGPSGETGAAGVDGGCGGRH
Text: (§1) Materials. The Hormone-sensitive lipase was provided by Dr. Cecilia Holm, from Lund University Sweden or produced and purified by Novo Nordisk (NN) using the reagents and protocols used by Dr. Holm. The substrates used are: ^3H-labeled triolein (TO) from Amersham, Buckinghamshire, U.K. cat No. TRA191; 5–20 Ci/mmol dissolved in toluene, triolein (Sigma, Cat. No. T-1740), fluorochrome-labeled triacylglyceride (cis-octadec-9-enoic acid 2-[12-(7-nitrobenzo[1,2,5]oxadiazol-4-ylamino)dodecanoyloxy]-1-cis-octadec-9-enoyloxymethyl-ethyl ester) prepared by Novo Nordisk (NN) by conventional methods, and 1,3-(di[^3H]-stearin), 2-(PEG-Boitin)glycerol prepared in collaboration with Amersham Pharmacia Biotech, UK and described in WO 01/073442. Phosphatidyl choline (PC) and phosphatidyl inositol (PI) are from Sigma (St Luis Mo. cat. Nos. P-3556 and P-5954 respectively). All other reagents are of commercial grade and obtained from various commercial sources.
3180.2: Assay for determination of percent inhibition by compound at 10 μM concentration.
A lipid emulsion with ^3H-Triolein and phospholipid is used as substrate with a standard cencentration of highly purified HSL. BSA is added as product receptor. The substrate is prepared as follows:
30 μl PC:PI (20 mg/ml solution of PC:PI 3:1 prepared in chloroform)+128 μl cold TO+15 μl ^3H-TO are mixed and then evaporated under a gentle stream of N2 followed by 20–30 minutes in a Speedvac to ensure the absence of residual solvent.
Compound and HSL are incubated for 30 min at 25° C. before addition of substrate. Reaction is stopped after 30 min at 25° C. by adding a mixture of methanol, chloroform and heptane at high pH. Formed product is separated from substrate by phase separation.
Results are given as percent activity relative to an un-inhibited sample (no compound).

[2] = biological target: T1, Hormone-sensitive lipase (HSL); format: biochemical
Text: as §1
2898.2: This method is an enzyme assay based upon SPA (scintillation proximity assay) particles. The substrate, 1,3-(di-[^3H]-stearin), 2-(PEG-Biotin)-glycerol, is marked with ^3H in both fatty acid moieties in the tri-glyceride. The third moiety of the tri-glyceride is a PEG linked Biotin. The substrate binds through Biotin to streptavidin in the SPA particles and the proximity between the radioactive tritium in the stearic acid moiety and the SPA particle results in emission of light from the SPA particles. The assay is an on-bead assay where HSL degrades the substrate, where after ^3H-stearin acid is released from the bead. The amount of light emitted is proportional to the amount of substrate bound to the receptor. When a compound that inhibits the activity of HSL is present it results in a decrease in degradation of the substrate and thus an increase in the amount of light emitted and a concomitant increase in % Eff. % Eff(% Inhibition)=(S−S0Eff)/(SmaxEff−S0Eff)×100 Where S=signal in dpm., SOEff=no inhibitor added, SmaxEff=with maximum concentration of inhibitor. Results

[3] = SPA on-bead assay, % Eff (% Inhibition)
[4] = 10 μM concentration, percent activity relative to an un-inhibited sample (no compound)

Compound	Test 2898.2 HSL2 % Inhibition All [2, 3] [%]	activity at 10 µM [1, 4] [%]	other results
CN(C)C(=O)On1nnc2ccccc21 [Example 103, Dimethylcarbamic acid benzotriazol-1-yl ester]	101.4	–	activity at 10 µM [1]: 2%
CCCCCCSc1nc(-c2ccc(C)cc2)nn1C(=O)N(C)c1ccccc1 [Example 118, N-Methyl-N-phenyl-5-hexylsulfanyl-3-p-tolyl-[1,2,4]triazole-1-carboxamide]	–	24	–
CC(C)C(Cl)=NOC(=O)NCc1ccc(F)cc1 [Example 112, N-(4-Fluorobenzylcarbamoyloxy)-isobutyrimidoyl chloride]	86	–	–
CSc1nc(-c2ccc(Cl)cc2)nn1C(=O)N1CCOCC1 [Example 120, [3-(4-Chlorophenyl)-5-methylsulfanyl-[1,2,4]triazol-1-yl]-morpholin-4-yl-methanone]	–	40	–
Cc1c(Cc2ccccc2)c(=O)oc2cc(OC(=O)N3CCOCC3)ccc12 [Example 92]	–	–	Test 3180.2 HSL % ACTIVITY All [1, 4]: 62%
CCSc1nc(-c2ccc(Cl)cc2)nn1C(=O)N(C)C [Example 122, N,N-Dimethyl-3-(4-chloro-phenyl)-5-ethylsulfanyl-[1,2,4]triazole-1-carboxamide]	–	14	–
CSc1nc(-c2ccc3ccccc3c2)nn1C(=O)N(C)C [Example 121, N,N-Dimethyl-5-methylsulfanyl-3-naphthalen-2-yl-[1,2,4]triazole-1-carboxamide]	–	24	–
O=C(Nc1cccn1-c1ncc(C(F)(F)F)cc1Cl)Oc1ccc(Cl)cc1 [Example 117, [1-(3-Chloro-5-trifluoromethyl-pyridin-2-yl)-1H-pyrrol-2-yl]-carbamic acid 4-chloro-phenyl ester]	–	2	–
CSc1nc(-c2ccc(-c3ccccc3)cc2)nn1C(=O)N(C)C [Example 123, N,N-Dimethyl-3-biphenyl-4-yl-5-methylsulfanyl-[1,2,4]triazole-1-carboxamide]	–	22	–
CC(C)C(Cl)=NOC(=O)NCC(O)c1ccccc1 (stereo not shown) [Example 113, N-(2-Hydroxy-2-phenylethylcarbamoyloxy)-isobutyrimidoyl chloride]	18.3	–	–
CSc1nc(-c2ccc(Cl)cc2)nn1C(=O)N(C)C [Example 124, N,N-Dimethyl-3-(4-chloro-phenyl)-5-methylsulfanyl-[1,2,4]triazole-1-carboxamide]	75.1	–	–
Cc1ccc(CSc2nnc(OC(=O)N(C)C)n2-c2cccc(Cl)c2)cc1 [Example 133, Dimethyl carbamic acid 4-(3-chloro-phenyl)-5-(4-methyl-benzylsulfanyl)-4H-[1,2,4]triazol-3-yl ester]	15.8	–	–
N-Methyl-N-phenethyl-5-ethyl-3-(4-chlorophenyl)-[1,2,4]triazole-1-carboxamide [Example 119]	–	–	Test 3180.2 HSL % ACTIVITY All [1, 4]: 10%
1-Biphenyl-4-yl-3-methylamino-propenone-cyclohexyl-carbamic acid [Example 115]	–	–	Test 3180.2 HSL % ACTIVITY All ([1]; 10 µM): 85%; Test 2898.2 HSL2 % Inhibition All [2]: 73.6%
